For orientation: solubility means the concentration that dissolves in the medium under given conditions. A higher solubility goes with a readily soluble substance. The term LD50 denotes the dose expected to kill half of the subjects tested.

One series in a line: Solubility. The conditions noted are these: for solubility relative to that of Compound 1-1 and 3: relative to Compound 1-1 and 3 (Z is hydrogen).
Series [1] has as its system AZ521 human stomach cancer. The series is described as follows: In vitro anti-tumor activity against AZ-521 human stomach cancer (MTT). To be noted: AZ-521, 72 h. It counts as cell-based. In a few lines:
(§1)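 Growth inhibition was measured by MTT reduction after 72-hour compound exposure of cells plated at 500 to 2,000 per well and allowed to attach for 20 hours at 37° C.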

The nature of a further series: Acute toxicity. The conditions noted are these: mouse, in vivo, mice, 14th day. Here is the method:
Solutions of test compounds in predetermined concentrations were administered (0.1 ml/10 g body weight) to female BALB/c CrSlc mice (5 to 10 animals per one group, 10 weeks old) respectively, and, thus, LD50 values were calculated from the mortalities of the mice on the 14th day after the administration.

For the next series, the system named is A427 human lung cancer. Description: In vitro anti-tumor activity against A-427 human lung cancer (MTT). It counts as cell-based. To be noted: A-427, 72 h. In a few lines:
as §1

Series [2] relates to KB human nasopharynx cancer. Description: In vitro anti-tumor activity against KB human nasopharynx cancer (MTT). The class given is cell-based. The conditions noted are these: 72 h. In a few lines: as §1
Series [3] relates to WiDr human colorectal cancer. Description: In vitro anti-tumor activity against WiDr human colorectal cancer (MTT). It counts as cell-based. To be noted: 72 h. The method, boiled down:
as §1

Another series concerns C33A human cervix cancer. The series is described as follows: In vitro anti-tumor activity against C-33A human cervix cancer (MTT). The class given is cell-based. The conditions noted are these: 72 h. The method, boiled down: as §1
The test system of series [4] is murine P388 lymphocytic leukemia cells. Description: Increases in life span of mice implanted with murine P388 lymphocytic leukemia cells. It counts as in vivo, SLC: BDF1 mice. The conditions noted are these: Mus musculus, P388, ip, 720 h.
Series [5] relates to colon 26 murine tumor cells. Description: Tumor growth inhibition effect on colon 26 murine tumor cells implanted mice. The conditions noted are these: Mus musculus, read-out: Tumor growth inhibition rate IR (%); for inhibition in vivo at 3.13 mg/kg: 3.13 mg/kg once a day. It counts as in vivo, SLC: CDF1 mice. In a few lines: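 CDF1 female mice (7–9 weeks, 7 per group) implanted intracutaneously in the abdomen with 2% brei of colon 26 cells. Compound given ip once daily from day 1 to day 9. Tumor weight estimated from diameters on day 21 or 22; IR % = [1 − (treated MTW/control MTW)] × 100.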

Series [6] has as its system murine P388 lymphocytic leukemia cells. Description: In vitro anti-tumor activity against murine P388 lymphocytic leukemia cells (MTT, 72 h). The class given is cell-based. The conditions noted are these: Mus musculus, read-out: IC50 (50% proliferation inhibitory concentration). The method, boiled down: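 MTT assay, 72 h exposure; formazan dissolved in DMSO after centrifugation and supernatant removal. Absorbance read at 570 nm with 690 nm reference. IC50 (μg/ml) by least squares.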

Series [7] concerns MKN45 human stomach cancer. Description: In vitro anti-tumor activity against MKN45 human stomach cancer (MTT). It counts as cell-based. In a few lines: as §1
The subject of the next series is HMV2 human melanoma. Description: In vitro anti-tumor activity against HMV-2 human melanoma (MTT). The class given is cell-based. The conditions noted are these: HMV-2, 72 h. In a few lines:
as §1

A further series concerns tumor. To be noted: Cancer Research 52, 2818 (1992); cited from earlier work.
[8] abbreviates: Intraperitoneal administration (ip).
[9] abbreviates: Intravenous administration (iv).
The mark [10] stands for this setting: NCI criterion, ip, 3.13 mg/kg, read-out: Evaluation.
Setting [11] is: NCI criterion, ip, 6.25 mg/kg, read-out: Evaluation.
Where [12] appears, read: NCI criterion, ip, 12.5 mg/kg, read-out: Evaluation.
Where [13] appears, read: NCI criterion, ip, 25 mg/kg, read-out: Evaluation.
[14] abbreviates: ip, 3.13 mg/kg, days 1 and 5, in solution, read-out: ILS (%) (in solution).
[15] abbreviates: ip, 3.13 mg/kg, days 1 and 5, in suspension, read-out: ILS (%) (in suspension).
The mark [16] stands for this setting: ip, 6.25 mg/kg, days 1 and 5, in solution, read-out: ILS (%) (in solution).
Setting [17] is: ip, 12.5 mg/kg, days 1 and 5, in solution, read-out: ILS (%) (in solution).
The mark [18] stands for this setting: ip, 12.5 mg/kg, days 1 and 5, in suspension, read-out: ILS (%) (in suspension).
Where [19] appears, read: ip, 25 mg/kg, days 1 and 5, in solution, read-out: ILS (%) (in solution).
Setting [20] is: Colon 26, 504 h, ip, days 1-9, day 21 or 22.
Where [21] appears, read: MKN-45, MKN45, 72 h, MTT, read-out: IC50.
[22] abbreviates: read-out: ILS (%) (in solution).

Values after ≈ are worked out from the molar mass of the structure shown. Counter-ions that a name gives are not always drawn. Like-named read-outs stand apart in the source and are kept apart here.

Consider `COC1CN(c2ccc3c(=O)c(C(=O)O)cn(-c4nccs4)c3n2)CC1N(C)C(=O)[C@H](C)N` (stereo partly drawn) [Compound 1-1-3, 7-[trans-3-(N-L-alanylmethylamino)-4-methoxy-1-pyrrolidinyl]-1,4-dihydro-4-oxo-1-(2-thiazolyl)-1,8-naphthyridine-3-carboxylic acid hydrochloride], for which the solubility in “Solubility” (0.1 m phosphate buffer, pH 7.2, aqueous buffer) was over 234 mg/mL; in the series “Solubility” (water), over 98.7 mg/mL. For the same molecule, the “solubility relative to that of Compound 1-1 and 3” value in “Solubility” is at least 10 times.

Regarding `Cl.NC1CCN(c2ccc3c(=O)c(C(=O)O)cn(-c4nccs4)c3n2)C1` (stereo not drawn) [Compound 3, 7-(3-amino-1-pyrrolidinyl)-1,4-dihydro-4-oxo-1-(2-thiazolyl)-1,8-naphthyridine-3-carboxylic acid hydrochloride], the IC50 in [1] (MTT, read-out: IC50) came out at 0.181 µg/mL; with A427 human lung cancer (MTT, read-out: IC50), 0.0588 µg/mL; in [2] (KB, MTT, read-out: IC50), 0.153 µg/mL; in [3] (MTT, read-out: IC50), 1.08 µg/mL; in the series on C33A human cervix cancer (C-33A, MTT, read-out: IC50), 0.184 µg/mL; in series [6] (murine P388 cells, 72 h, MTT), 0.0103 µg/mL. The IC50 in [7] (setting [21]) was found to be 0.364 µg/mL; in the series on HMV2 human melanoma (MTT, read-out: IC50), 0.21 µg/mL. Further, the LD50 at 336 h in the series “Acute toxicity” (setting [8]) amounted to 55.2 mg/kg; in the series “Acute toxicity” (setting [9]), 119 mg/kg. In the series “Solubility” (water), the solubility came to 8.3 mg/mL. Further, the ILS at 1.56 mg/kg is 20 to 74% in [4] (NCI criterion, ip, 1.56 mg/kg, read-out: Evaluation); 63% in [4] (ip, 1.56 mg/kg, days 1 and 5, in solution, read-out: ILS (%) (in solution)). Besides, the figures for the ILS at 3.13 mg/kg in series [4] (setting [10]), in [4] (setting [14]) and in series [4] (setting [15]) were over 75%, 75% and 88%, respectively. Besides, the ILS at 6.25 mg/kg in [4] (setting [11]) is over 75%; in series [4] (setting [16]) it was 113%. Also, the results for the ILS at 12.5 mg/kg in series [4] (setting [12]), in [4] (setting [17]) and in [4] (setting [18]) were over 75%, 188% and 175%, respectively. Also, the ILS at 25 mg/kg was over 75% in [4] (setting [13]) and over 275% in series [4] (setting [19]). The inhibition in vivo at 3.13 mg/kg in [5] (setting [20]) stood at 77%.

For `C[C@H](N)C(=O)NC1CCN(c2ccc3c(=O)c(C(=O)O)cn(-c4nccs4)c3n2)C1.Cl` (stereo partly drawn) [Compound 3-1, 7-(3-L-alanylamino-1-pyrrolidinyl)-1,4-dihydro-4-oxo-1-(2-thiazolyl)-1,8-naphthyridine-3-carboxylic acid hydrochloride], the “solubility relative to that of Compound 1-1 and 3” value in “Solubility” was at least 10 times. This molecule also gave a solubility in the series “Solubility” (water) of 79.4 mg/mL.

Regarding `CNC1(C)CCN(c2ccc3c(=O)c(C(=O)O)cn(-c4nccs4)c3n2)C1` (stereo not drawn) [Compound 4], the IC50 came out at 0.1 µg/mL (≈ 0.259 µM) in series [1] (MTT, read-out: IC50); 0.194 µg/mL (≈ 0.503 µM) in the series on A427 human lung cancer (MTT, read-out: IC50); 0.172 µg/mL (≈ 0.446 µM) in [2] (KB, MTT, read-out: IC50); 0.392 µg/mL (≈ 1.02 µM) in [3] (MTT, read-out: IC50); 0.144 µg/mL (≈ 0.374 µM) in the series with C33A human cervix cancer (C-33A, MTT, read-out: IC50); 0.0175 µg/mL (≈ 0.0454 µM) in series [6] (murine P388 cells, 72 h, MTT). The IC50 turned out to be 0.199 µg/mL (≈ 0.516 µM) in series [7] (setting [21]) and 0.187 µg/mL (≈ 0.485 µM) with HMV2 human melanoma (MTT, read-out: IC50). The median lethal dose (LD50) at 336 h in the series “Acute toxicity” (setting [9]) is over 100 mg/kg. In addition, the results for the ILS at 3.13 mg/kg in [4] (setting [10]), in [4] (setting [14]) and in series [4] (setting [15]) were 20 to 74%, 63% and 63%, respectively. The ILS at 6.25 mg/kg is over 75% in series [4] (setting [11]) and 88% in series [4] (setting [16]). Further, the ILS at 12.5 mg/kg in [4] (setting [12]) was over 75%; in [4] (setting [17]), 125%; in series [4] (setting [18]), 125%. The values for the ILS at 25 mg/kg in series [4] (setting [13]) and in [4] (setting [19]) were over 75% and 150%, respectively. Further, in [5] (Colon 26, 504 h, ip, 1.56 mg/kg once a day, days 1-9, day 21 or 22), the inhibition in vivo at 1.56 mg/kg was 64%. Moreover, in series [5] (setting [20]), the inhibition in vivo at 3.13 mg/kg amounted to 89%.

Take `NCC1CCN(c2c(F)cc3c(=O)c(C(=O)O)cn(C4CC4)c3c2F)C1` (stereo not drawn) [Compound G]: in the series with tumor, the “anti-tumor activity, in words” value was “has anti-tumor activity”.

With `COc1cc([C@@H]2c3cc4c(cc3[C@@H](O[C@@H]3O[C@@H]5CO[C@@H](C)O[C@H]5[C@H](O)[C@H]3O)[C@H]3COC(=O)[C@H]23)OCO4)cc(OC)c1O` [Compound H, Etoposide, reference compound], the IC50 in series [1] was determined as 0.08 µg/mL (≈ 0.136 µM); in the series with A427 human lung cancer, 0.095 µg/mL (≈ 0.161 µM); in series [2], 0.201 µg/mL (≈ 0.342 µM); in [3], 1.63 µg/mL (≈ 2.77 µM); in the series with C33A human cervix cancer (C-33-A), 0.084 µg/mL (≈ 0.143 µM); in series [6] (P388, 72 h), 0.00849 µg/mL (≈ 0.0144 µM). For the same molecule, the IC50 stood at 0.49 µg/mL (≈ 0.833 µM) in [7] (MKN-45, 72 h) and 0.298 µg/mL (≈ 0.506 µM) in the series on HMV2 human melanoma. In addition, the figures for the LD50 at 336 h in “Acute toxicity” (setting [8]) and in “Acute toxicity” (setting [9]) were 71 mg/kg and 123 mg/kg, respectively. The ILS at 1.56 mg/kg is 20 to 74% in series [4] (read-out: Evaluation) and 50% in [4] (setting [22]). For the same molecule, the ILS at 3.13 mg/kg in [4] (read-out: Evaluation) is over 75%; in series [4] (setting [22]), 75%. Further, the ILS at 6.25 mg/kg in series [4] (read-out: Evaluation) was over 75%; in series [4] (setting [22]) it was 100%. For the same molecule, the ILS at 12.5 mg/kg in series [4] (read-out: Evaluation) was over 75%; in series [4] (setting [22]) it was 150%. Further, the ILS at 25 mg/kg is over 75% in series [4] (read-out: Evaluation) and over 275% in [4] (setting [22]). In addition, the inhibition in vivo at 12.5 mg/kg in series [5] (Colon 26, ip, 504 h) came out at 57%.

Source of the values: US5817669A, “Compounds, processes for the preparation thereof and anti-tumor agents” (Dainippon Pharmaceutical Co., Ltd., priority 1994, dated 1998).
